These are literature values, as cited in US8859761B2, “Refining process of Cefamandole sodium” (Hainan Lingkang Pharmaceutical Co., Ltd., priority 2011, dated 2014).

Molecules are shown by their SMILES.

In the case of `Cn1nnnc1SCC1=C(C(=O)[O-])N2C(=O)C(NC(=O)C(OC=O)c3ccccc3)C2SC1.[Na+]` [Cefamandole nafate, sodium 7-D-(2-formyloxyphenylacetamide)-3-[(1-methyl-1H-tetrazol-5-yl)thiomethyl]-3-cephem-4-carboxylate], for the setting “ethanol”, the solubility in ethanol result was “almost insoluble”. In addition, the solubility in water entry (water) is on record as “dissolves well”.
